Converted amounts (≈) assume the structure as drawn. Values belong to the compound of their own block, whether it stands above or below them.
Assays:
[1] = target: T1, cynomolgus monkey B2 receptor (Macaca fascicularis, UniProt A0A7N9CWN6); test: Antagonist potency in cells expressing cynomolgus monkey B2 receptor; format: cell-based; settings: read-out: Kb value to antagonize BK activation
T1 sequence (A0A7N9CWN6 1-391): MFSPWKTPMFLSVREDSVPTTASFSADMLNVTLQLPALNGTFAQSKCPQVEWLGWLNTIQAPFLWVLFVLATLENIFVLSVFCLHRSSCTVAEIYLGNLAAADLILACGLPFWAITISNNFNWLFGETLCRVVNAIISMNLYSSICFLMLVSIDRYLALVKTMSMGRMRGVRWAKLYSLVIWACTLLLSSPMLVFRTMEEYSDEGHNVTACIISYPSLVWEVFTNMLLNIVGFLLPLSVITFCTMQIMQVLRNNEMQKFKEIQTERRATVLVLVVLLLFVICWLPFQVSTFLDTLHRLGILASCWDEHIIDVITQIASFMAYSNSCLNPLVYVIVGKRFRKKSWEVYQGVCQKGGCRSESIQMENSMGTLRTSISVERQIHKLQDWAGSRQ
Excerpt: (§1) The bradykinin B2 receptor is well known for its species selective pharmacology (Paquet et al., Br. J. Pharmacol. (126), 1083-1090, 1999 (DOI: 10.1038/sj.bjp.0702403); Burgess et al., Br. J. Pharmacol. (129), 77-86, 2000 (DOI: 10.1038/sj.bjp.0703012)). […] Pharmacol. 11:916; DOI: 10.3389/fphar.2020.00916.

[2] = tested on: acute HAE attacks; settings: cited from earlier work
[3] = target: T2, dog B2 receptor (Canis lupus familiaris, UniProt Q9BDQ4); test: Antagonist potency in cells expressing dog B2 receptor; format: cell-based; settings: dog B2 receptor
T2 construct: expressed in transfected cells
T2 sequence (Q9BDQ4 1-392): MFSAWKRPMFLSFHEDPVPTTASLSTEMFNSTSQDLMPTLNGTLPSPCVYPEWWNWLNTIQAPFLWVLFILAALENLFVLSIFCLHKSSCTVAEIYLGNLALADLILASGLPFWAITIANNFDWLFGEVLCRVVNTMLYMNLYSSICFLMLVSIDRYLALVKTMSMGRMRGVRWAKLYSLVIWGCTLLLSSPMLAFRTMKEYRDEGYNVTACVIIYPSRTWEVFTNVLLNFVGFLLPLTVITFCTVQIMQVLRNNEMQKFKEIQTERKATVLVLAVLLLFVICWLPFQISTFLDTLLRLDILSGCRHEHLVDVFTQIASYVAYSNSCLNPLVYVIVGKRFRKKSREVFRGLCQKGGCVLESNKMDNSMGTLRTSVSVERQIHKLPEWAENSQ
Excerpt: as §1

[4] = target: T3, BK B2 receptor (Homo sapiens, UniProt P30411); settings: cited from earlier work
T3 sequence (P30411 1-391): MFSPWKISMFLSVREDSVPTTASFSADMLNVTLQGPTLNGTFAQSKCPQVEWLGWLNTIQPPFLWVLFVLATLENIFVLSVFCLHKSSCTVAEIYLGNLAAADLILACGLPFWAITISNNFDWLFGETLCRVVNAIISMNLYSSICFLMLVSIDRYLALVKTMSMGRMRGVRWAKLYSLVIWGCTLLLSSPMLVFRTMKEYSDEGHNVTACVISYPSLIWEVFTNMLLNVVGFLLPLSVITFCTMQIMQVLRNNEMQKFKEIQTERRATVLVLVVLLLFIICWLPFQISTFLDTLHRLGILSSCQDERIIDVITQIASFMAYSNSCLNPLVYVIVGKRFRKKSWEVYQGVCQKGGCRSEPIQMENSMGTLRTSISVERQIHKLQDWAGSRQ

[5] = in vivo; cited from earlier work
[6] = target: T4, mouse B2 receptor (Mus musculus, UniProt P32299); test: Antagonist potency in cells expressing mouse B2 receptor; format: cell-based; settings: mouse B2 receptor
T4 construct: expressed in transfected cells
T4 sequence (P32299 1-392): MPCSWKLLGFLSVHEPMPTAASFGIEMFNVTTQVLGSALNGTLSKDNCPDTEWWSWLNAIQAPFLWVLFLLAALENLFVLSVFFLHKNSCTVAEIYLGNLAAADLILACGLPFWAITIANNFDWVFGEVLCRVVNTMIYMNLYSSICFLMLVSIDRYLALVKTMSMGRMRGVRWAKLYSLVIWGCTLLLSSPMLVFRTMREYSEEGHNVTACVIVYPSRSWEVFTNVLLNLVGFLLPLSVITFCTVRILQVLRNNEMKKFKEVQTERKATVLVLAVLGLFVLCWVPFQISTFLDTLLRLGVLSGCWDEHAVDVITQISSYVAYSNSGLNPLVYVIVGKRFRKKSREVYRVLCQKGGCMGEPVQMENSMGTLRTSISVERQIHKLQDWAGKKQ
Excerpt: as §1

[7] = target: T5, rat B2 receptor (Rattus norvegicus, UniProt P25023); test: Antagonist potency in cells expressing rat B2 receptor; format: cell-based; settings: rat B2 receptor
T5 construct: expressed in transfected cells
T5 sequence (P25023 1-396): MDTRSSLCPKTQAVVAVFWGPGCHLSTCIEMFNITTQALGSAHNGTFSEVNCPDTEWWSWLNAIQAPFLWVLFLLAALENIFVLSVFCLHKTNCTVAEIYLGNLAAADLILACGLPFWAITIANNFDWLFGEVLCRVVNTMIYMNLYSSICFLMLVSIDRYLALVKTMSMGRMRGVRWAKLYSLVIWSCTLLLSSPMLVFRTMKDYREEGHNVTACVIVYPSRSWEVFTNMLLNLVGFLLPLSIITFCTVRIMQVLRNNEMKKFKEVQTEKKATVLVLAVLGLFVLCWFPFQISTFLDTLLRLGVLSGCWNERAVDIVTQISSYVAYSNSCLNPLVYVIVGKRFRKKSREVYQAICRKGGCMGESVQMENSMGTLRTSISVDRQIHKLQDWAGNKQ
Excerpt: as §1

[8] = Drug-drug interaction trial with itraconazole, PK (Example 5)
Protocol: Thirteen healthy subjects were enrolled and completed the study.
On Days 4 to 8, subjects received once daily oral doses of 200 mg itraconazole one hour before start of a standard meal.
Trough plasma concentrations of itraconazole were determined by taking predose plasma samples on Days 4-7, to document exposure to itraconazole.

Compound: NC(N)=NCCC[C@@H](N)C(=O)N[C@@H](CCCN=C(N)N)C(=O)N1CCC[C@H]1C(=O)N1C[C@H](O)C[C@H]1C(=O)NCC(=O)N[C@@H](Cc1cccs1)C(=O)N[C@@H](CO)C(=O)N1Cc2ccccc2C[C@@H]1C(=O)N1[C@H](C(=O)N[C@@H](CCCN=C(N)N)C(=O)O)C[C@@H]2CCCC[C@@H]21 [icatibant]
Kb [1]: 4.06 nM
time after which therapeutic response to an acute HAE attack wanes ([2]; human, in vivo): approximately 6 hours
onset of relief in acute HAE attacks ([2]; placebo 19.8 h, Lumry et al. 2011): 2.0 h
Kb [3]: 30.7 nM
Time plasma level above EC85 at a 75% confidence level ([4]; in vivo, sc): 5.5 h
Time plasma level above EC85 at a 75% confidence level, DBP ([4]; in vivo, sc): 5.5 h
Time plasma level above EC85 at a 75% confidence level, MAP ([4]; in vivo, sc): 5.5 h
intrinsic PD potency at the K B2 receptor ([4]; in vivo): 8.9 nM
time plasma concentration above EC85 (85% effective) at 50% probability ([4]; in vivo): 5.5 h
EC85 (published, BK challenge) ([4]; plasma concentration, FDA Clinical Pharmacology Review Firazyr): 0.0538 µg/mL (≈ 0.0412 µM)
half-life [5]: 1.4 h
Kb [6]: 4.4 nM
Kb [7]: 5.6 nM

mean predose plasma concentration (Ctrough) ([8]; Day 4, itraconazole 200 mg dosing): 386 ± 82.2 ng/mL
mean predose plasma concentration (Ctrough) ([8]; Day 7, itraconazole 200 mg dosing): 597 ± 178 ng/mL
Compound: CCC(C)n1ncn(-c2ccc(N3CCN(c4ccc(OCC5COC(Cn6cncn6)(c6ccc(Cl)cc6Cl)O5)cc4)CC3)cc2)c1=O (stereo not drawn) [itraconazole]

Reference: US12629363B2, “Prophylaxis and treatment of angioedema” (PHARVARIS GMBH, priority 2020, dated 2026)
